One experiment concerns the target Human glucagon receptors (Homo sapiens, UniProt P47871). Kind of experiment: Glucagon receptor activation assay (CRE-luciferase reporter, CHO-K1). In general terms: A reporter such as luciferase makes a cellular process visible.
A further experiment deals with Human GLP-1 receptors (Homo sapiens, UniProt P43220). Kind of experiment: GLP-1 receptor activation assay (CRE-luciferase reporter, CHO-K1).

Some results are limits rather than exact numbers.

By EC50 is commonly meant the concentration giving half of the maximal effect. Low values mean higher potency in that assay, high ones lower potency in that assay.

Chain of Human glucagon receptors (P47871 26-477): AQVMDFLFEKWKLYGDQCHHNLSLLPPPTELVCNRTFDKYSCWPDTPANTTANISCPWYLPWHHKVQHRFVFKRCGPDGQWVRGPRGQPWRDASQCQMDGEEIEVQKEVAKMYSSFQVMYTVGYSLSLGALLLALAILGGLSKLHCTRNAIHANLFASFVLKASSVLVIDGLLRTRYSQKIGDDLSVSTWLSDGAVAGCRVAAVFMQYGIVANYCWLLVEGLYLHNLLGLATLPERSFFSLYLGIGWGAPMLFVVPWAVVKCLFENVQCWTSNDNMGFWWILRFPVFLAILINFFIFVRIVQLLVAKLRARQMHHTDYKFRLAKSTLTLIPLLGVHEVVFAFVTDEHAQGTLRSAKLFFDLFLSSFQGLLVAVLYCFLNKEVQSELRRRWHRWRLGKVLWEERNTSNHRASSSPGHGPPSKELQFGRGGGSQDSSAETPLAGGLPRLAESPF
Chain of Human GLP-1 receptors (P43220 24-463): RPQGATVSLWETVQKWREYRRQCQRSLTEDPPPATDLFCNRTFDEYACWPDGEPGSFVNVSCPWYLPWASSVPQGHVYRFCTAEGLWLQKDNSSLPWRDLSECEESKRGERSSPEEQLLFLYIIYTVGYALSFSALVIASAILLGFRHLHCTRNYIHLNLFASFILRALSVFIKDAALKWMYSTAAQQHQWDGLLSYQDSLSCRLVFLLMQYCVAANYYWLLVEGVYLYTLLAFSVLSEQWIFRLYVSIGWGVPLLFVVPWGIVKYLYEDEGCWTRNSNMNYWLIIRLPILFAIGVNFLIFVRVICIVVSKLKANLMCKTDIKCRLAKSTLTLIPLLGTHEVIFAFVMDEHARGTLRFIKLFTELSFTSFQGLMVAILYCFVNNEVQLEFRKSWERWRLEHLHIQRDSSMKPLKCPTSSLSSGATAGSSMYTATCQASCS

`CCCCCCCCCCCCCCCCCC(=O)N[C@@H](CCC(=O)NCCOCCOCC(=O)NCCOCCOCC(=O)NCCCC[C@H](NC(=O)[C@H](CC(=O)O)NC(=O)[C@H](CO)NC(=O)[C@@H](NC(=O)[C@H](Cc1ccccc1)NC(=O)[C@@H](NC(=O)CNC(=O)[C@H](CCC(N)=O)NC(=O)C(C)(C)NC(=O)[C@@H](N)Cc1c[nH]cn1)[C@@H](C)O)[C@@H](C)O)C(=O)N[C@@H](CO)C(=O)N[C@@H](CCCCN)C(=O)N[C@@H](Cc1ccc(O)cc1)C(=O)N[C@@H](CC(C)C)C(=O)N[C@@H](CC(=O)O)C(=O)NC(C)(C)C(=O)N[C@@H](CCCNC(=N)N)C(=O)N[C@@H](CCCNC(=N)N)C(=O)N[C@@H](C)C(=O)N[C@@H](CCC(N)=O)C(=O)N[C@@H](CC(=O)O)C(=O)N[C@@H](Cc1ccccc1)C(=O)N[C@H](C(=O)N[C@@H](CCC(N)=O)C(=O)N[C@@H](Cc1c[nH]c2ccccc12)C(=O)N[C@@H](CC(C)C)C(=O)N[C@@H](CCSC)C(=O)N[C@@H](CC(N)=O)C(=O)N[C@H](C(=O)N[C@@H](CCCCN)C(=O)O)[C@@H](C)O)C(C)C)C(=O)O` [Compound 3]: the EC50 on Human glucagon receptors and on Human GLP-1 receptors was below 10 pM throughout.

On to `CCCCCCCCCCCCCCCCCC(=O)N[C@@H](CCC(=O)NCCOCCOCC(=O)NCCOCCOCC(=O)NCCCC[C@H](NC(=O)[C@H](CC(=O)O)NC(=O)[C@H](CO)NC(=O)[C@@H](NC(=O)[C@H](Cc1ccccc1)NC(=O)[C@@H](NC(=O)CNC(=O)[C@H](CCC(N)=O)NC(=O)C(C)(C)NC(=O)[C@@H](N)Cc1c[nH]cn1)[C@@H](C)O)[C@@H](C)O)C(=O)N[C@@H](CO)C(=O)N[C@@H](CCCCN)C(=O)N[C@@H](Cc1ccc(O)cc1)C(=O)N[C@@H](CC(C)C)C(=O)N[C@@H](CC(=O)O)C(=O)NC(C)(C)C(=O)N[C@@H](CCCNC(=N)N)C(=O)N[C@@H](CCCNC(=N)N)C(=O)N[C@@H](C)C(=O)N[C@@H](CCC(N)=O)C(=O)N[C@@H](CC(=O)O)C(=O)N[C@@H](Cc1ccccc1)C(=O)N[C@H](C(=O)N[C@@H](CCC(N)=O)C(=O)N[C@@H](Cc1c[nH]c2ccccc12)C(=O)N[C@@H](CC(C)C)C(=O)N[C@@H](CCSC)C(=O)N[C@@H](CC(N)=O)C(=O)N[C@H](C(=O)N[C@@H](CCCCN)C(N)=O)[C@@H](C)O)C(C)C)C(=O)O` [Compound 6], for which the concentration for a half-maximal effect (EC50) on Human glucagon receptors and at Human GLP-1 receptors was below 10 pM in each case.

Regarding `CCCCCCCCCCCCCCCCCC(=O)N[C@@H](CCC(=O)NCCOCCOCC(=O)NCCOCCOCC(=O)NCCCC[C@H](NC(=O)[C@H](CC(=O)O)NC(=O)[C@H](CO)NC(=O)[C@@H](NC(=O)[C@H](Cc1ccccc1)NC(=O)[C@@H](NC(=O)CNC(=O)[C@H](CCC(N)=O)NC(=O)C(C)(C)NC(=O)[C@@H](N)Cc1c[nH]cn1)[C@@H](C)O)[C@@H](C)O)C(=O)N[C@@H](CO)C(=O)N[C@@H](CCCCN)C(=O)N[C@@H](Cc1ccc(O)cc1)C(=O)N[C@@H](CC(C)C)C(=O)N[C@@H](CC(=O)O)C(=O)NC(C)(C)C(=O)N[C@@H](CCCNC(=N)N)C(=O)N[C@@H](CCCNC(=N)N)C(=O)N[C@@H](C)C(=O)N[C@@H](CCC(N)=O)C(=O)N[C@@H](CC(=O)O)C(=O)N[C@@H](Cc1ccccc1)C(=O)N[C@H](C(=O)N[C@@H](CCC(N)=O)C(=O)N[C@@H](Cc1c[nH]c2ccccc12)C(=O)N[C@@H](CC(C)C)C(=O)N[C@@H](CCSC)C(=O)N[C@@H](CC(N)=O)C(=O)N[C@H](C(=O)N[C@@H](CCCCN)C(=O)N[C@@H](CCCNC(=N)N)C(=O)N[C@@H](CC(N)=O)C(=O)N[C@@H](CCCNC(=N)N)C(=O)N[C@@H](CC(N)=O)C(=O)N[C@@H](CC(N)=O)C(=O)N[C@H](C(=O)N[C@@H](C)C(=O)O)[C@@H](C)CC)[C@@H](C)O)C(C)C)C(=O)O` [Compound 7], the concentration giving a half-maximal response (EC50) on Human glucagon receptors and at Human GLP-1 receptors was below 10 pM throughout.

These data come from US11713344B2 (DONG-A ST CO., LTD., priority 2017, dated 2023).
